# Patent US20190032115A1, “GENETIC TESTING FOR […] GRAM-NEGATIVE PROTEUS AGAINST ANTIMICROBIAL AGENTS” (Ares Genetics GmbH, priority 2015, published 2019)
# Tested on: Proteus strains (583 clinical isolates)
# Assay: Antimicrobial susceptibility testing (AST) on frozen reference panels, minimal inhibitory concentration (MIC) read visually
# Assay type: cell-based, Proteus mirabilis, Proteus penneri and Proteus vulgaris
# Conditions: classical AST
# Method: The inventors selected 583 Proteus strains from the microbiology strain collection at Siemens Healthcare Diagnostics (West Sacramento, Calif.) for susceptibility testing and whole genome sequencing.
# Frozen reference AST panels were prepared following Clinical Laboratory Standards Institute (CLSI) recommendations. The following antimicrobial agents (with μg/ml concentrations shown in parentheses) were included in the panels: Amoxicillin/K Clavulanate (0.5/0.25-64/32), Ampicillin (0.25-128), Ampicillin/Sulbactam (0.5/0.25-64/32), Aztreonam (0.25-64), Cefazolin (0.5-32), Cefepime (0.25-64), Cefotaxime (0.25-128), Ceftazidime (0.25-64), Ceftriaxone (0.25-128), Cefuroxime (1-64), Cephalothin (1-64), Ciprofloxacin (0.015-8), Ertepenem (0.12-32), Gentamicin (0.12-32), Imipenem (0.25-32), Levofloxacin (0.25-16), Meropenem (0.12-32), Piperacillin/Tazobactam (0.25/4-256/4), Tetracycline (0.5-64), Tobramycin (0.12-32), and Trimethoprim/Sulfamethoxazole (0.25/4.7-32/608). […]
# Isolates were cultured on trypticase soy agar with 5% sheep blood (BBL, Cockeysville, Md.) and incubated in ambient air at 35±1° C. for 18-24 h. […] Panel results were read visually, and minimal inhibitory concentrations (MIC) were determined.
# Proteus strains to be tested were seeded on agar plates and incubated under growth conditions for 24 hours. […] Bacterial growth was determined by observing turbidity. […]
smiles,measurement,value
"CC1(C)S[C@@H]2[C@H](NC(=O)[C@H](N)c3ccccc3)C(=O)N2[C@H]1C(=O)O [ampicillin, Ampicillin]",resistance of Proteus observed against the agent,high resistance
